Test [1] concerns skin. Put plainly: UVA sun protection factor (PF = protected MPD/non-protected MPD) on the back of volunteers. Type of test: in vivo, human (healthy adults of both sexes). To be noted: for UVA skin protection (assessment in words): based on the UVA sun protection factors 1.6, 2.7 and 3.4; for UVA sun protection factor: 2±0.02 μl/cm^2, UVA 320-400 nm, read approximately 2 h after exposure. As for the experimental part:
Potentiation of the sun protection factor
The aim of the test is to show the ability of the compositions of the invention to protect the skin against UVA by virtue of a high UVA protection factor.
Ten individuals were tested. They were healthy adults of both sexes. An area of skin located on the back of each of the volunteers was subjected to solar exposure after defining the skin type. The exposure was carried out with a UVA spectrum alone (320 nm to 400 nm), supplied by a 150 W xenon lamp fitted with a WG 335 filter 3 mm in thickness and a UG 11 filter 1 mm in thickness. The UV radiation was conducted by 6 liquid, flexible light guides, making it possible to deliver doses of from 6 to 45 joules/cm^2 in a 50% geometric progression.
The application was a single dose, in the open air, of 2±0.02 μl/cm^2, i.e., approximately 0.15 ml of test product per individual, on an area of 75 cm^2, measured with a sterile 1 ml Tuberculin syringe graduated to 1/1000 and having a centered cone.
Exposure was approximately 15 min after application of the product. Macroscopic examination of the exposed areas of the skin was performed approximately 2 h after exposure, to evaluate the immediate and permanent pigmentation reactions. The minimum pigmenting dose on the area protected by the product applied (protected MPD) and that on the area in which no product had been applied (non-protected MPD) was performed simultaneously.
The protection factor PF is then calculated as follows:
PF=protected MPD/non-protected MPD
The test was carried out with 3 compositions, each having the same support, containing arbutin, the UV screening agent (terephthalylidene dicamphor sulphonic acid), and the combination of arbutin and the UV screening agent, respectively.

Test [2] is described as follows: Anti-free-radical activity: inhibition of the production of ethylene from methionine under UVA. Type of test: biochemical. The following applies: UVA 365 nm, 1 J/cm^2, pH 7.4, average of 3 tests. As for the experimental part:
The following were introduced in order into a Petri dish 32 mm in diameter:
1.4 ml of 50 mM phosphate buffer (pH=7.4), 100 μl of 200 mM methionine solution
100 μl of 4 mM ferric chloride solution,
100 μl of 4 mM EDTA (ethylenediaminetetraacetic acid) solution, 100 μl of 400 mM NADH (nicotinamideadeninedinucleotide, reduced form) solution, 100 μl of 2 mM riboflavin solution.
Total volume of the mixture: 2 ml.
The Petri dish was then placed in an aluminum crucible and covered with a quartz cell so as to be exposed to UVA rays (365 nm) at a dose of 1 J/cm^2. The mixture, composed of NADH, riboflavin, ferric chloride and EDTA, when subjected to exposure to the UVA rays, generates reduced oxygen species: O2 .cndot.^-, H2 O2, and mainly the hydroxyl radical .cndot.OH. The latter reacts with methionine to release ethylene. The amount of ethylene was measured by gas chromatography.
The smaller the amount of free radicals formed, the smaller the amount of ethylene released. The results are expressed as a percentage of inhibitory power corresponding to the percentage decrease in the production of ethylene relative to the control (containing 100 μl of phosphate buffer replacing the test product).
The following substances studied were introduced using a micropipette: […]
terephthalylidene dicamphor sulphonic acid […]

With `OC[C@H]1O[C@@H](Oc2ccc(O)cc2)[C@H](O)[C@@H](O)[C@@H]1O` [arbutin, hydroquinone-beta-D-glucopyranoside], the “UVA skin protection (assessment in words)” value in test [1] is listed as “negligible skin protection”. Also, in test [1] (composition with 5% arbutin), the “UVA sun protection factor” value amounted to 1.6. The “% inhibition (percentage decrease in the production of ethylene relative to the control)” value in test [2] (0.2% arbutin) stood at 39.0 ± 0.6%.
On to `CC1(C)C2CCC1(CS(=O)(=O)O)C(=O)C2=Cc1ccc(C=C2C(=O)C3(CS(=O)(=O)O)CCC2C3(C)C)cc1` [benzene-1,4-bis(3-methylidenecamphor-10-sulphonic acid)], for which the “UVA skin protection (assessment in words)” value in test [1] is “significant skin protection”. For the same compound, in test [1] (composition with 1% terephthalylidene dicamphor sulphonic acid), the “UVA sun protection factor” value amounted to 2.7. In addition, in test [2] (0.2% terephthalylidene dicamphor sulphonic acid), the “% inhibition (percentage decrease in the production of ethylene relative to the control)” value came out at 44.7 ± 1.7%.

The values above are taken from patent publication US5670487A, “Composition for protecting and/or combating blemishes on and/or ageing of the skin, and uses thereof” (L'Oreal, priority 1995, dated 1997).
